The results in this text go back to patent publication US7531565B2, “Imidazolidin-2-one derivatives as selective androgen receptor modulators (SARMS)” (Janssen Pharmaceutica, N.V., priority 2004, dated 2009).

One test addresses T1, androgen receptor (Rattus norvegicus, UniProt P15207).
T1 sequence (P15207 1-902): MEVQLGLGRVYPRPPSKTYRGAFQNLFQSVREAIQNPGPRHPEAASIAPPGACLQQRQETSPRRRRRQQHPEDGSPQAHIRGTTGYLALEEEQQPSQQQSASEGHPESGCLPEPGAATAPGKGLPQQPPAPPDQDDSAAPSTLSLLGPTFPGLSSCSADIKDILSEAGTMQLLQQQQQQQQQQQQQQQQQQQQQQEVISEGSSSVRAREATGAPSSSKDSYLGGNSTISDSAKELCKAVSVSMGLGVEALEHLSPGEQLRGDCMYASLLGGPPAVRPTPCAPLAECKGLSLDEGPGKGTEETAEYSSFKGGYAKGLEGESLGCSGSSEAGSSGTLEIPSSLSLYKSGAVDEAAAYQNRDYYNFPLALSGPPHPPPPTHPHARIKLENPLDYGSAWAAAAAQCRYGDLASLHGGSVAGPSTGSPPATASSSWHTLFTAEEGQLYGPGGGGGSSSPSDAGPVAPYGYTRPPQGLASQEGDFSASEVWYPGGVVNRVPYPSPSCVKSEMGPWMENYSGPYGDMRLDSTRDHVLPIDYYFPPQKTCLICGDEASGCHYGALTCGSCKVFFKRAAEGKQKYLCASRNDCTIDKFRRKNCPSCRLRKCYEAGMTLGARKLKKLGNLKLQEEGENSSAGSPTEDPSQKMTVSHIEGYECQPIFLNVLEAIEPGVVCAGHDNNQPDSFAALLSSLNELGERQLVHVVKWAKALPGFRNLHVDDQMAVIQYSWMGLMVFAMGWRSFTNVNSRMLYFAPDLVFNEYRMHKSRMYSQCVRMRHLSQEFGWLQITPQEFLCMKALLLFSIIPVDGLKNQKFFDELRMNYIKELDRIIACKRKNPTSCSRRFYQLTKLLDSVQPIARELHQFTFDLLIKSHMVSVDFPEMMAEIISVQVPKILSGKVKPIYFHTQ
In words: COS-7 whole-cell androgen receptor binding assay, adenovirus transduction. Set-up: expressed in transfected cells. The note with it: for % Inhibition @ 3 μM: 3 μM (3000 nM), COS-7 cells, [3H]R1881, AdEasy+rAR; for inhibition at 3 µM: read-out: % Inhibition @ 3 μM. The procedure:
COS-7 cells were plated in 96-well plates at 20,000 cells per well, in a solution of DMEM/F12 (GIBCO) containing 10% (v/v) charcoal-treated fetal bovine serum (Hyclone) and lacking phenol red. The cells were then incubated overnight at 37° C. in 5% (v/v) humidified CO2.
Test compound solutions were prepared by diluting the test compound in 100% (v/v) DMSO, if necessary. Each dilution yielded a solution which was 625× the final desired test concentration.
Next, 1 mL of DMEM/F12 lacking phenol red was pipetted into each of the wells of a 2-mL 96-well assay block. Then 4 μL of the 625× test compound dilutions were pipetted into each well of the assay block. The wells were carefully mixed by pipette.
In a 15 mL or 50 mL sterile centrifuge tube, a 2.5 nM dilution of tritiated methyl-trienolone in DMEM/F12 lacking phenol red ([^3H]R1881; Perkin-Elmer) was prepared.
In a 15 mL or 50 mL sterile centrifuge tube, a dilution in DMEM/F12 of the adenovirus AdEasy+rAR at a moi of 1:50 per well was prepared.
The medium was removed from the 96-well plates by inversion and the plates dried very briefly, inverted, on a sterile towel. As soon as possible after medium removal, 40 μL of the diluted test compound was added to each well, in duplicate. To each well was then added 40 μL of the 2.5 nM [^3H]R1881 and 20 μL of the diluted adenovirus. The plates were then incubated for 48 hours at 37° C. in 5% (v/v) humidified CO2.
The medium was removed from the above incubated plates by inversion and dried. Each well was then washed with 0.35 mL of 1×PBS. The PBS was then removed from the plates by inversion and the plates dried.
To each well was then added 50 μL of 0.5% (v/v) Triton X-100 (Sigma) in 1×PBS and the plates placed on a rotary shaker for 5 min. The contents of each well were then transferred to an OptiPlate-96 (Packard) scintillation plate. To each well was then added 0.2 mL of Microscint-20 (Packard) and the wells counted on a TopCount (Packard).
Percent inhibition was determined by testing dilutions of the test compound (usually duplicates of 10 μM) in the binding assay. Counts per well were measured and percents of inhibition determined. Androgen receptor binding IC50s were determined by testing serial dilutions of the test compound (usually duplicate ten half-log dilutions starting at 10 μM) in the binding assay. Counts per well were measured and IC50s determined by linear regression.
Representative compounds of the present invention were tested for binding to the androgen receptor according to the procedure described above with results as listed in Table C. Unless otherwise noted, COS binding % inhibition was determined using a concentration of 3000 nM. For compounds tested more than once, each result is listed separately in Table 3 below.

For test [1], the system named is castrated male Sprague Dawley rats. The experiment in a line: Ventral prostate and seminal vesicle weight in vivo assay. Set-up: species or system rat; key: A test compound was said to be “active” if the non weight adjusted prostate weight was ≦60 mg or ≧84 mg; they are listed herein as “inactive” as they did not meet the specified criteria defined above. Conditions: immature castrated rats, once daily for five days, usually orally 40 mg/kg, with testosterone propionate 2 mg/kg s.c. As for the experimental part:
Immature (approximately 50 g) castrated male Sprague Dawley rats (Charles River) were treated once daily for five days with test compound (usually given orally at 40 mg/kg in a volume of 0.3 mL, in 30% cyclodextrin or 0.5% methylcellulose vehicle) and with testosterone propionate (given subcutaneously by injection at the nape of the neck at 2 mg/kg, in a volume of 0.1 mL in sesame oil). On the sixth day, the rats were euthanized by asphyxiation in carbon dioxide. Ventral prosatates and seminal vesicles were removed and their wet weights determined. Test compound activity was determined as the percent inhibition of testosterone-enhanced tissue weights, with a vehicle-treated control group set to zero percent and a testosterone alone-treated control group set to 100%.
A test compound was said to be “active” if the non weight adjusted prostate weight was ≦60 mg or ≧84 mg.

`COC(=O)C1(C)CN(c2ccccc2)C(=O)N1` (racemic) [Compound 4b]: the “% Inhibition @ 3 μM” value at androgen receptor turned out to be 16%. In addition, the “active / inactive by non weight adjusted prostate weight” value in test [1] is recorded as “active”.

As to `COC(=O)C1(C)CN(c2ccc(OC)cc2)C(=O)N1` (racemic) [Compound 4c], the “% Inhibition @ 3 μM” value on androgen receptor is given as −8%. Besides, in test [1], the “active / inactive by non weight adjusted prostate weight” value was “inactive”.

As for `COC(=O)C1(C)CN(c2ccc(Cl)c(C(F)(F)F)c2)C(=O)N1` (racemic) [Compound 4d], the “% Inhibition @ 3 μM” value at androgen receptor is reported as −30%. The “active / inactive by non weight adjusted prostate weight” value in test [1] is “inactive”.

Turning to `COC(=O)C1(C)CN(c2ccc(C#N)c(C(F)(F)F)c2)C(=O)N1` (racemic) [Compound 4e], the “% Inhibition @ 3 μM” value at androgen receptor stood at 27%. In test [1], the “active / inactive by non weight adjusted prostate weight” value was “active”.

For `CC1(C(=O)O)CN(c2ccccc2)C(=O)N1` (racemic) [Compound 5b], the “% Inhibition @ 3 μM” value on androgen receptor worked out at 15%. Besides, the “active / inactive by non weight adjusted prostate weight” value in test [1] was “inactive”.

In the case of `COc1ccc(N2CC(C)(C(=O)O)NC2=O)cc1` (racemic) [Compound 5c], the “% Inhibition @ 3 μM” value at androgen receptor is −11%. Further, the “active / inactive by non weight adjusted prostate weight” value in test [1] was “inactive”.

Consider `CC1(C(=O)O)CN(c2ccc(Cl)c(C(F)(F)F)c2)C(=O)N1` (racemic) [Compound 5d], for which the “% Inhibition @ 3 μM” value on androgen receptor is reported as −26%. Further, in test [1], the “active / inactive by non weight adjusted prostate weight” value is “inactive”.

Take `CC1(C(=O)Nc2ccccc2)CN(c2ccccc2)C(=O)N1` (racemic) [Compound 6b]: on androgen receptor, the “% Inhibition @ 3 μM” value is reported as 22%. The “active / inactive by non weight adjusted prostate weight” value in test [1] is “inactive”.

Regarding `COc1ccc(N2CC(C)(C(=O)Nc3ccc(C#N)c(C(F)(F)F)c3)NC2=O)cc1` (racemic) [Compound 6c], the “% Inhibition @ 3 μM” value at androgen receptor is on record as 24%. For the same compound, the “active / inactive by non weight adjusted prostate weight” value in test [1] was “inactive”.

Take `CC1(C(=O)Nc2ccc(C#N)c(C(F)(F)F)c2)CN(c2ccccc2)C(=O)N1` (racemic) [Compound 6d]: the “% Inhibition @ 3 μM” value on androgen receptor is reported as 40%. In addition, the “active / inactive by non weight adjusted prostate weight” value in test [1] was “inactive”.

`CC1(C(=O)Nc2ccc([N+](=O)[O-])c(C(F)(F)F)c2)CN(c2ccccc2)C(=O)N1` (racemic) [Compound 6e]: the “% Inhibition @ 3 μM” value at androgen receptor is 37%. Moreover, the “active / inactive by non weight adjusted prostate weight” value in test [1] is “inactive”.

In the case of `CC1(C(=O)Nc2cccc(C(F)(F)F)c2)CN(c2ccc(F)cc2)C(=O)N1` (racemic) [Compound 6g], the “% Inhibition @ 3 μM” value on androgen receptor is on record as −40%. Also, the “active / inactive by non weight adjusted prostate weight” value in test [1] is “inactive”.

As to `CC1(C(=O)Nc2cc(C(F)(F)F)cc(C(F)(F)F)c2)CN(c2ccc(F)cc2)C(=O)N1` (racemic) [Compound 6h], the “% Inhibition @ 3 μM” value at androgen receptor was found to be 76%. The “active / inactive by non weight adjusted prostate weight” value in test [1] is “active”.

Regarding `CC1(C(=O)Nc2ccc(C(F)(F)F)nc2)CN(c2ccccc2)C(=O)N1` (racemic) [Compound 6j], the “% Inhibition @ 3 μM” value on androgen receptor was 18%. Further, the “active / inactive by non weight adjusted prostate weight” value in test [1] was “inactive”.

As a reminder, the inhibition is the relative decrease from the control value, in per cent. In the case of `CC1(C(=O)O)CN(c2ccc(F)cc2)C(=O)N1` (centres unmarked) [Compound 5a, 1-(4-Fluoro-phenyl)-4-methyl-2-oxo-imidazolidine-4-carboxylic acid], at androgen receptor, the inhibition at 3 µM is -14%. Besides, in test [1], the “active / inactive by non weight adjusted prostate weight” value was “inactive”.

As to `CC1(C(=O)Nc2ccc(C#N)c(C(F)(F)F)c2)CN(c2ccc(F)cc2)C(=O)N1` (centres unmarked) [Compound 6a, 1-(4-Fluoro-phenyl)-4-methyl-2-oxo-imidazolidine-4-carboxylic acid (4-cyano-3-trifluoromethyl-phenyl)-amide], the inhibition at 3 µM on androgen receptor turned out to be 43%. Besides, in test [1], the “active / inactive by non weight adjusted prostate weight” value is “active”.
